Measured values: patent US8551984B2, “Aminopyrimidines as SYK inhibitors” (Merck Sharp & Dohme Corp., priority 2009, dated 2013)
pIC50: −log10 of the molar value.

Target: recombinant human SYK (GST-hSYK fusion protein) (Homo sapiens, UniProt P43405)
Experiment: biochemical
[1] = rhSYK Activity (IC50), recombinant human GST-SYK 5 pM, ATP 25 μM, biotinylated substrate peptide 250 nM, HTRF, 10-dose titration
[2] = Syk IC50, HTRF, recombinant human GST-SYK
[3] = rhSYK Activity, Table 10, Formula A
[4] = rhSYK Activity, table of Examples 16-x
[5] = rhSYK Activity, table of Examples 19-x

Text: Homogeneous Time-Resolved Fluorescence (HTRF) Assay for the Recombinant Human SYK Enzyme:

| Structure (SMILES) | pIC50 (rhSYK Activity, Table 116A) | other results |
| --- | --- | --- |
| CC(=O)Nc1cc(Nc2nccc(OC3CCN(C(=O)OC(C)(C)C)CC3)n2)cc(-c2cnc(C3(O)CCC3)s2)c1 [109(1), tert-butyl 4-[2-({3-(acetylamino)-5-[2-(1-hydroxycyclobutyl)-1,3-thiazol-5-yl]phenylamino)pyrimidin-4-yl]oxy}piperidine-1-carboxylate] |  | pIC50 [1]: 6.00 to 7.00 |
| CC(=O)Nc1cc(Nc2nccc(OC3CCNCC3)n2)cc(-c2cnc(C3(O)CCC3)s2)c1 [109(2), N-(3-[2-(1-hydroxycyclobutyl)-1,3-thiazol-5-yl]-5-{[4-(piperidin-4-yloxy)pyrimidin-2-yl]-amino}phenyl)acetamide] |  | pIC50 [1]: > 7.00 |
| Cc1cc(Nc2nccc(C3CC3)n2)cc(-c2cnc([C@]3(O)CC[C@@H](C(=O)O)CC3)s2)c1 [110(1), Cis-4-(5-(3-[(4-cyclopropylpyrimidin-2-yl)amino]-5-methylphenyl)-1,3-thiazol-2-yl)-4-hydroxycyclohexanecarboxylic acid] |  | pIC50 [1]: > 7.00 |
| Cc1cc(Nc2nc(C)cc(C)n2)cc(-c2cnc([C@]3(O)CC[C@@H](O)CC3)s2)c1 [116A-1] | 5.00 to 6.00 |  |
| Cc1cc(Nc2ncc(F)c(C)n2)cc(-c2cnc([C@]3(O)CC[C@@H](C(=O)O)CC3)s2)c1 [116A-2] | > 7.00 |  |
| Cc1cc(Nc2nccc(C(C)C)n2)cc(-c2cnc([C@]3(O)CC[C@@H](C(=O)O)CC3)s2)c1 [116A-3] | > 7.00 |  |
| Cc1cc(Nc2ncc(Cl)c(C)n2)cc(-c2cnc([C@]3(O)CC[C@@H](C(=O)O)CC3)s2)c1 [116A-4] | > 7.00 |  |
| COc1nc(Nc2cc(C)cc(-c3cnc([C@]4(O)CC[C@@H](C(=O)O)CC4)s3)c2)ncc1F [116A-5] | > 7.00 |  |
| Cc1cc(Nc2nccc(C(C)(C)C)n2)cc(-c2cnc([C@]3(O)CC[C@@H](C(=O)O)CC3)s2)c1 [116A-6] | > 7.00 |  |
| Cc1cc(Nc2nccc(OC(C)C)n2)cc(-c2cnc(C3(O)CCC(C(=O)O)CC3)s2)c1 (centres unmarked) [116A-7] | > 7.00 |  |
| COc1nc(Nc2cc(C)cc(-c3cnc(C4(O)CCC(C(=O)O)CC4)s3)c2)ncc1Cl (centres unmarked) [116A-8] | > 7.00 |  |
| Cc1cc(Nc2nccc(C(C)F)n2)cc(-c2cnc(C3(O)CCC(C(=O)OC(C)(C)C)CC3)s2)c1 (centres unmarked) [116A-10] | > 7.00 |  |
| COc1nc(Nc2cc(C)cc(-c3cnc(C4(O)CCC(C(=O)OC(C)(C)C)CC4)s3)c2)ncc1F (centres unmarked) [116A-11] | 6.00 to 7.00 |  |
| Cc1cc(Nc2nccc(C(C)(C)C)n2)cc(-c2cnc(C3(O)CCC(C(=O)OC(C)(C)C)CC3)s2)c1 (centres unmarked) [116A-12] | 6.00 to 7.00 |  |
| Cc1cc(Nc2nccc(C(F)(F)C(F)(F)F)n2)cc(-c2cnc(C3(O)CCC(C(=O)O)CC3)s2)c1 (centres unmarked) [116A-13] | > 7.00 |  |
| COc1nc(Nc2cc(C)cc(-c3cnc(C4(O)CCC(C(=O)OC(C)(C)C)CC4)s3)c2)ncc1Cl (centres unmarked) [116A-14] | 6.00 to 7.00 |  |
| Cc1cc(Nc2nccc(-c3cccs3)n2)cc(-c2cnc(C3(O)CCC(C(=O)OC(C)(C)C)CC3)s2)c1 (centres unmarked) [116A-15] | 6.00 to 7.00 |  |
| Cc1cc(Nc2nccc(C(F)F)n2)cc(-c2cnc(C3(O)CCC(C(=O)O)C(C)C3)s2)c1 (centres unmarked) [116A-18] | > 7.00 |  |
| Cc1cc(Nc2nccc(C(C)(C)C)n2)cc(-c2cnc(C3(O)CCC(C(=O)O)C(C)C3)s2)c1 (centres unmarked) [116A-20] | > 7.00 |  |
| Cc1cc(Nc2nccc(OC(C)C)n2)cc(-c2cnc(C3(O)CCC(C(=O)O)C(C)C3)s2)c1 (centres unmarked) [116A-21] | > 7.00 |  |

| Structure (SMILES) | pIC50 (rhSYK Activity, Table 116A) | other results |
| --- | --- | --- |
| COC(=O)C1CCC(O)(c2ncc(-c3cc(C)cc(Nc4ncc(F)cn4)c3)s2)CC1(C)C (centres unmarked) [116A-22] | 6.00 to 7.00 |  |
| Cc1cc(Nc2ncc(F)c(O)n2)cc(-c2cnc(C3(O)CCC(C(=O)O)C(C)(C)C3)s2)c1 (centres unmarked) [116A-23] | 6.00 to 7.00 |  |
| Cc1cc(Nc2nccc(C(=O)O)n2)cc(-c2cnc([C@@]3(O)CC[C@H](C(=O)O)C(C)(C)C3)s2)c1 [116A-24] | > 7.00 |  |
| COC(=O)C1CCC(O)(c2ncc(-c3cc(C)cc(Nc4ncc(F)c(C)n4)c3)s2)CC1(C)C (centres unmarked) [116A-25] | > 7.00 |  |
| Cc1cc(Nc2ncc(Cl)c(C)n2)cc(-c2cnc([C@@]3(O)CC[C@H](C(=O)O)C(C)(C)C3)s2)c1 [116A-27] | > 7.00 |  |
| COc1nc(Nc2cc(C)cc(-c3cnc(C4(O)CCC(C(=O)O)C(C)(C)C4)s3)c2)ncc1F (centres unmarked) [116A-28] | > 7.00 |  |
| Cc1cc(Nc2nccc(C(F)F)n2)cc(-c2cnc([C@@]3(O)CC[C@H](C(=O)O)C(C)(C)C3)s2)c1 [116A-30] | > 7.00 |  |
| Cc1cc(Nc2nccc(C3CCC3)n2)cc(-c2cnc([C@@]3(O)CC[C@H](C(=O)O)C(C)(C)C3)s2)c1 [116A-31] | > 7.00 |  |
| Cc1cc(Nc2nccc(C(C)(C)C)n2)cc(-c2cnc(C3(O)CCC(C(=O)O)C(C)(C)C3)s2)c1 (centres unmarked) [116A-32] | > 7.00 |  |
| Cc1cc(Nc2nccc(OC(C)C)n2)cc(-c2cnc([C@@]3(O)CC[C@H](C(=O)O)C(C)(C)C3)s2)c1 [116A-33] | > 7.00 |  |
| COC(=O)C1CCC(O)(c2ncc(-c3cc(C)cc(Nc4ncc(Cl)c(C)n4)c3)s2)CC1(C)C (centres unmarked) [116A-34] | 6.00 to 7.00 |  |
| COC(=O)C1CCC(O)(c2ncc(-c3cc(C)cc(Nc4ncc(F)c(OC)n4)c3)s2)CC1(C)C (centres unmarked) [116A-35] | 6.00 to 7.00 |  |
| COc1nc(Nc2cc(C)cc(-c3cnc(C4(O)CCC(C(=O)O)C(C)(C)C4)s3)c2)ncc1Cl (centres unmarked) [116A-36] | > 7.00 |  |
| COC(=O)C1CCC(O)(c2ncc(-c3cc(C)cc(Nc4ncc(Cl)c(OC)n4)c3)s2)CC1(C)C (centres unmarked) [116A-38] | 6.00 to 7.00 |  |
| Cc1cc(Nc2nccc([C@@H](C)F)n2)cc(-c2cnc([C@@]3(O)CC[C@H](C(=O)O)C(C)(C)C3)s2)c1 [116A-39] | > 7.00 |  |
| Cc1cc(Nc2nccc([C@H](C)F)n2)cc(-c2cnc([C@@]3(O)CC[C@H](C(=O)O)C(C)(C)C3)s2)c1 [116A-40] | > 7.00 |  |
| Cc1cc(Nc2nccc(C(F)(F)F)n2)cc(-c2cnc(C3(O)CC(C)(C)C(C(=O)O)CC3O)s2)c1 (stereo not drawn) [142(1), 1,4-Trans, 1,5-trans-4,5-dihydroxy-2,2-dimethyl-4-[5-(3-methyl-5-{[4-(trifluoromethyl)pyrimidin-2-yl]amino}phenyl)-1,3-thiazol-2-yl]cyclohexanecarboxylic acid] |  | pIC50 [1]: > 7.00 |
| CO/C=C/c1ncc(-c2cc(C)cc(Nc3nccc(C(F)(F)F)n3)c2)s1 [153(A), N-(3-{2-[(E)-2-Methoxyethenyl]-1,3-thiazol-5-yl}-5-methylphenyl)-4-(trifluoromethyl)pyrimidin-2-amine] |  | pIC50 [1]: > 7.00 |
| CO/C=C\c1ncc(-c2cc(C)cc(Nc3nccc(C(F)(F)F)n3)c2)s1 [153(B), N-(3-{2-[(Z)-2-Methoxyethenyl]-1,3-thiazol-5-yl}-5-methylphenyl)-4-(trifluoromethyl)pyrimidin-2-amine] |  | pIC50 [1]: > 7.00 |
| CCOP(=O)(OCC)[C@]1(O)CC[C@](O)(c2ncc(-c3cc(C)cc(Nc4nccc(C(F)(F)F)n4)c3)s2)CC1 [155(B), Diethyl{trans-1,4-dihydroxy-4-[5-(3-methyl-5-{[4-(trifluoromethyl)pyrimidin-2-yl]amino}phenyl)-1,3-thiazol-2-yl]cyclohexyl}phosphonate] |  | pIC50 [1]: > 7.00 |

| Structure (SMILES) | pIC50 (rhSYK Activity, Table 116A) | other results |
| --- | --- | --- |
| Cc1cc(Nc2nccc([C@@H](C)F)n2)cc(-c2cnc([C@@]3(O)CC[C@H](C(=O)O)C(C)(C)C3)s2)c1 [(1S,4R)-4-{5-[3-({4-[(1R)-1-fluoroethyl]pyrimidin-2-yl}amino)-5-methylphenyl]-1,3-thiazol-2-yl}-4-hydroxy-2,2-dimethylcyclohexanecarboxylic acid] |  | pIC50 [2]: > 9.30 |
| Cc1cc(Nc2nccc([C@H](C)F)n2)cc(-c2cnc([C@@]3(O)CC[C@H](C(=O)O)C(C)(C)C3)s2)c1 [(1S,4R)-4-{5-[3-({4-[(1S)-1-fluoroethyl]pyrimidin-2-yl}amino)-5-methylphenyl]-1,3-thiazol-2-yl}-4-hydroxy-2,2-dimethylcyclohexanecarboxylic acid] |  | pIC50 [2]: > 9.30 |
| COc1ccnc(Nc2cc(C)cc(-c3cnc(C4(O)CCNC(=O)CC4)s3)c2)n1 (centres unmarked) [Example 10A-1] |  | pIC50 [3]: > 7.00 |
| COCc1cc(Nc2nccc(C(F)(F)F)n2)cc(-c2cnc(C3(O)CCNC(=O)CC3)s2)c1 (centres unmarked) [Example 10A-4] |  | pIC50 [3]: > 7.00 |
| Cc1cc(Nc2nccc(C(F)(F)F)n2)cc(-c2cnc(C3=CC(=O)NCC3)s2)c1 [Example 10B-1] |  | pIC50 (rhSYK Activity, Table 10, Formula B): > 7.00 |
| OC1(c2ncc(-c3cccc(Nc4nccc(C(F)(F)F)n4)c3)s2)CCCC1 [Example 15-2] |  | pIC50 (rhSYK Activity, Table 15): > 7.00 |
| Cc1cc(Nc2nccc(C(F)(F)F)n2)cc(-c2cnc(C(C)(O)C(F)(F)F)s2)c1 (centres unmarked) [Example 15-4] |  | pIC50 (rhSYK Activity, Table 15): > 7.00 |
| CC(O)c1ncc(-c2cccc(Nc3nccc(C(F)(F)F)n3)c2)s1 (centres unmarked) [Example 15-5, 1-[5-(3-{[4-(Trifluoromethyl)pyrimidin-2-yl]amino}phenyl)-1,3-thiazol-2-yl]ethanol] |  | pIC50 (rhSYK Activity, Table 15): > 7.00 |
| CCCC(=O)Nc1cc(Nc2nccc(C(F)(F)F)n2)cc(-c2cnc(C3(O)CCC3)s2)c1 [Example 16-1] |  | pIC50 [4]: > 7.00 |
| O=C(Nc1cc(Nc2nccc(C(F)(F)F)n2)cc(-c2cnc(C3(O)CCC3)s2)c1)C1CC1 [Example 16-2] |  | pIC50 [4]: > 7.00 |
| CCNC(=O)Nc1cc(Nc2nccc(C(F)(F)F)n2)cc(-c2cnc(C3(O)CCC3)s2)c1 [Example 19-1] |  | pIC50 [5]: > 7.00 |
| NC(=O)Nc1cc(Nc2nccc(C(F)(F)F)n2)cc(-c2cnc(C3(O)CCC3)s2)c1 [Example 19-2] |  | pIC50 [5]: > 7.00 |
| CNC(=O)Nc1cc(Nc2nccc(C(F)(F)F)n2)cc(-c2cnc(C3(O)CCC3)s2)c1 [Example 19-3] |  | pIC50 [5]: > 7.00 |
| CC(C)NC(=O)Nc1cc(Nc2nccc(C(F)(F)F)n2)cc(-c2cnc(C3(O)CCC3)s2)c1 [Example 19-4] |  | pIC50 [5]: > 7.00 |
| NC(=O)NC(=O)Nc1cc(Nc2nccc(C(F)(F)F)n2)cc(-c2cnc(C3(O)CCC3)s2)c1 [Example 19-5] |  | pIC50 [5]: > 7.00 |
| FC(F)(F)c1ccnc(Nc2cccc(-c3cnc(C4CCCO4)s3)c2)n1 (centres unmarked) [Example 21-1] |  | pIC50 (rhSYK Activity, Table 21): > 7.00 |
| CN1CCOC(c2ncc(-c3cccc(Nc4nccc(C(F)(F)F)n4)c3)s2)C1 (centres unmarked) [Example 21-2] |  | pIC50 (rhSYK Activity, Table 21): > 7.00 |
| CS(=O)(=O)Cc1ncc(-c2cccc(Nc3nccc(C(F)(F)F)n3)c2)s1 [Example 21-3] |  | pIC50 (rhSYK Activity, Table 21): > 7.00 |
| Cn1cc(-c2ncc(-c3cccc(Nc4nccc(C(F)(F)F)n4)c3)s2)cn1 [Example 21-4] |  | pIC50 (rhSYK Activity, Table 21): > 7.00 |
